# Experimental data: patent US11325921B2, “Optically active crosslinked cyclic secondary amine derivative” (Sumitomo Dainippon Pharma Co., Ltd., priority 2018, dated 2022)
# Key:
# [1] = molecular target: Menin-MLL binding (His-Menin1-615 / MLL1-172-FLAG) (Homo sapiens (Human), UniProt O00255); assay: Test 1: inhibition of the Menin-MLL binding (HTRF); details: for Menin-MLL binding inhibition activity (in words): summary of the table
# Procedure: Menin1-615 wherein 6× His tag and HA tag are inserted in the N-terminus, and myc tag is inserted in the C-terminus (hereinafter, referred to as His-Menin1-615), was diluted with an assay buffer (25 mmol/L HEPES, 150 mmol/L NaCl, 1 mmol/L dithiothreitol, 0.5% (w/v) Tween 80, 0.3% (w/v) BSA, 0.3% (w/v) skim milk) to adjust the final concentration Lo 30 nmol/L. The test compounds were also diluted with the assay buffer to adjust each concentration of the test compounds to 0.005 to 5 μmol/L. The prepared His-Menin1-615 and test compounds were added to a light-shielding 384-well low-volume plate (Corning, #4514) in 2 μL/well and 6 μL/well, respectively, and the plate was covered with a lid for light-shielding (Corning, r-3935), and incubated at room temperature for 3 hours. After the incubation, MLL1-172 wherein FLAG tag is inserted in the C-terminus (MLL1-172-FLAG), was separately diluted with the assay buffer to adjust the final concentration to 50 nmol/L. The prepared MLL1-172-FLAG was added to the above plate in 2 μL/well, and the plate was covered with a lid for light-shielding and incubated at room temperature for an hour.
# Then, anti-6HIS-d2 antibody (cisbio, 61HISDLA) and anti-FLAGM2-K antibody (cisbio, 61FG2KLA) were diluted with an antibody dilution buffer (50 mmol/L Tris, 150 mmol/L NaCl, 800 mmol/L KF, pH 7.4) to adjust the final concentration to 1.4 μg/mL to prepare an antibody mixture. The prepared antibody mixture was added to the above plate in 10 μL/well, and the plate was covered with a lid and incubated at 4° C. for 17 to 24 hours. After the incubation, the signal was detected with RUBYstar (BMG LABTECH). The binding inhibition rate (%) at each concentration of the test compounds was calculated from the following formula, and the IC50 value was obtained, that corresponds to the concentration of the test compound at which the binding inhibition rate is 50%.
# RS4; 11 cells = assay: Test 2: inhibition of cell proliferation, RS4; 11; format: cell-based; details: for IC50: Homo sapiens, 168 h, 11 cells, cultured 7 days, PrestoBlue; for cell proliferation inhibition activity (in words, good) / cell proliferation inhibitory activity (in words, potent): 11 and MOLM-13 cells, summary of the table; for cell proliferation inhibitory activity (in words, potent): 'especially'
# Procedure: (§1) RS4; 11 cells were obtained from American Type Culture Collection (ATCC). The cells were cultured at 37° C. in the presence of 5% CO2 in RPMI 1640 medium containing 10% fetal bovine serum and 1% penicillin/streptomycin. MOLM-13 cells were separately obtained from DSMZ. The cells were cultured at 37° C. in the presence of 5% CO2 in RPMI 1640 medium containing 20% fetal bovine serum and 1% penicillin/streptomycin.
# (§2) The cells were plated to a 96-well plate in 2000 cells/well, each test compound was added thereto to adjust the final concentration of DMSO to 0.1% of DMSO, and the cells were cultured for 7 days. After the cultivation, the cell viability was calculated with PrestoBlue™ Cell Viability Reagent (Invitrogen, A13261). The IC50 value was calculated from a survival curve, that corresponds to the concentration of the test compound at which the cell proliferation inhibition rate is 50%.
# MOLM-13 cells = assay: Test 2: inhibition of cell proliferation, MOLM-13; format: cell-based; details: Homo sapiens, 168 h, cultured 7 days, PrestoBlue
# Procedure: as §1, §2
# [2] = system: MEIS1 mRNA in MV4; 11 cells; assay: Test 3: inhibition of mRNA transcription, MEIS1; format: cell-based; details: for mrna remaining at 1 µM: Homo sapiens, MV4, 20 to 24 hours, fitted with GAPDH, read-out: mRNA at 1 μM (% control) MEIS1; for mRNA transcription inhibition activity (in words): MEIS1 and HOXA9, MV4, 1 μM, summary of the table
# Procedure: (§3) MV4; 11 cells were obtained from American Type Culture Collection (ATCC). The cells were cultured at 37° C. in the presence of 5% CO2 in RPMI 1640 medium containing 10% fetal bovine serum and 1% penicillin/streptomycin. To the MV4; 11 cells was added each test compound to adjust the final concentration to 1 μmol/L, and the cells were cultured at 37° C. in the presence of 5% CO2 for 20 to 24 hours. After the incubation, the total RNA was extracted from the cells with RNeasy™ Mini Kit (QIAGEN, 74106), and cDNA was synthesized with Superscript™ VILO™ cDNA Synthesis Kit (Invitrogen, #11754250). By using TaqMan™ Gene Expression Master Mix (Applied Biosystems, 4369016) and TaqMan™ probe (Applied Biosystems), the expression level of mRNA was quantified from the obtained cDNA with 7900HT (Applied biosystems). The mRNA expression level of each obtained gene was fitted with the expression level of mRNA of GAPDH.
# [3] = system: HOXA9 mRNA in MV4; 11 cells; assay: Test 3: inhibition of mRNA transcription, HOXA9; format: cell-based; details: Homo sapiens, 20 to 24 hours, fitted with GAPDH, read-out: mRNA at 1 μM (% control) HOXA9
# Procedure: as §3
# Menin-MLL binding (His-Menin1-615 / MLL1-172-FLAG), sequence (O00255 other isoform, or with tags, fused parts or gaps): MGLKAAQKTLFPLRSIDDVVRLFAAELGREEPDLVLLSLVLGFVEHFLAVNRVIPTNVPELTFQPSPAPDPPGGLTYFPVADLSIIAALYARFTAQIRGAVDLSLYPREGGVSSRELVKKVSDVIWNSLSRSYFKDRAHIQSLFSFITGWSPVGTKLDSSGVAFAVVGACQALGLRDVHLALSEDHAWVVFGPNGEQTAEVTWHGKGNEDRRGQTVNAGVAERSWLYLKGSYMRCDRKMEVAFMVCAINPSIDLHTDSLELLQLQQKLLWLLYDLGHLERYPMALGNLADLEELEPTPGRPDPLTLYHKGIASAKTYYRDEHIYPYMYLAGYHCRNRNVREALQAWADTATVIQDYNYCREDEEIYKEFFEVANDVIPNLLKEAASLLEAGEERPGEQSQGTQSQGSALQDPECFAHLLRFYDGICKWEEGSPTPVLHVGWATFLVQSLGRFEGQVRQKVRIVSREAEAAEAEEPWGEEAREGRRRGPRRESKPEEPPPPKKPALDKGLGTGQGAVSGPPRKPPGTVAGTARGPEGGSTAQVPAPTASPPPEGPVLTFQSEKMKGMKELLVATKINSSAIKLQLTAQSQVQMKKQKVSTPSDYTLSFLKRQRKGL
Compound,IC50 [1] [nM],IC50 (RS4; 11 cells) [nM],IC50 (MOLM-13 cells) [nM],mrna remaining at 1 µM [2] [%],mrna remaining at 1 µM [3] [%],Menin-MLL binding inhibition activity (in words) [1],"cell proliferation inhibition activity (in words, good) (RS4; 11 cells)","cell proliferation inhibitory activity (in words, potent) (RS4; 11 cells)",mRNA transcription inhibition activity (in words) [2]
"O=C([C@H]1N[C@H]2CC[C@@H]1C(F)(F)C2)N1CC2(C1)CN(c1c(C(F)(F)F)cnc3sc(CC(F)(F)F)cc13)C2 [Example 4, [(1S,3S,4S)-5,5-difluoro-2-azabicyclo[2.2.2]octan-3-yl]{6-[2-(2,2,2-trifluoroethyl)-5-(trifluoromethyl)thieno[2,3-b]pyridin-4-yl]-2,6-diazaspiro[3.3]heptan-2-yl}methanone]",140,780,1700,65.4,60,,,,
"O=C([C@H]1N[C@H]2CC[C@@H]1C[C@@H]2O)N1CC2(C1)CN(c1c(C(F)(F)F)cnc3sc(CC(F)(F)F)cc13)C2 [Example 6, [(1S,3S,4R,6S)-6-hydroxy-2-azabicyclo[2.2.2]octan-3-yl]{6-[2-(2,2,2-trifluoroethyl)-5-(trifluoromethyl)thieno[2,3-b]pyridin-4-yl]-2,6-diazaspiro[3.3]heptan-2-yl}methanone]",27.3,580,830,51.3,54.3,,,,
"O=C1C[C@@H]2CC[C@H]1[C@@H](C(=O)N1CC3(C1)CN(c1c(C(F)(F)F)cnc4sc(CC(F)(F)F)cc14)C3)N2 [Example 8, (1S,3S,4S)-3-{6-[2-(2,2,2-trifluoroethyl)-5-(trifluoromethyl)thieno[2,3-b]pyridin-4-yl]-2,6-diazaspiro[3.3]heptane-2-carbonyl}-2-azabicyclo[2.2.2]octan-5-one]",635,330,1100,82.9,79.3,,,,
"O=C([C@H]1N[C@H]2CC[C@@H]1C[C@H]2F)N1CC2(C1)CN(c1c(C(F)(F)F)cnc3sc(CC(F)(F)F)cc13)C2 [Example 10, [(1S,3S,4R,6R)-6-fluoro-2-azabicyclo[2.2.2]octan-3-yl]{6-[2-(2,2,2-trifluoroethyl)-5-(trifluoromethyl)thieno[2,3-b]pyridin-4-yl]-2,6-diazaspiro[3.3]heptan-2-yl}methanone]",343,810,2100,68.8,69.5,,,,
"C=CCO[C@H]1C[C@H]2CC[C@@H]1N[C@@H]2C(=O)N1CC2(C1)CN(c1c(C(F)(F)F)cnc3sc(CC(F)(F)F)cc13)C2 [Example 11, {(1S,3S,4R,6S)-6-[(prop-2-en-1-yl)oxy]-2-azabicyclo[2.2.2]octan-3-yl}{6-[2-(2,2,2-trifluoroethyl)-5-(trifluoromethyl)thieno[2,3-b]pyridin-4-yl]-2,6-diazaspiro[3.3]heptan-2-yl}methanone]",53.9,630,730,60.7,64.5,,,,
"O=C([C@H]1N[C@H]2CC[C@@H]1C[C@@H]2OCc1ccccc1)N1CC2(C1)CN(c1c(C(F)(F)F)cnc3sc(CC(F)(F)F)cc13)C2 [Example 13, [(1S,3S,4R,6S)-6-(benzyloxy)-2-azabicyclo[2.2.2]octan-3-yl]{6-[2-(2,2,2-trifluoroethyl)-5-(trifluoromethyl)thieno[2,3-b]pyridin-4-yl]-2,6-diazaspiro[3.3]heptan-2-yl}methanone]",134,620,810,57.3,63,,,,
"N#Cc1cnc2sc(CC(F)(F)F)cc2c1N1CC2(CN(C(=O)[C@H]3NC4CCC3CC4)C2)C1 [Example 20, 4-{6-[(3S)-2-azabicyclo[2.2.2]octane-3-carbonyl]-2,6-diazaspiro[3.3]heptan-2-yl}-2-(2,2,2-trifluoroethyl)thieno[2,3-b]pyridine-5-carbonitrile]",11.4,270,220,41.8,59.3,potent,good,potent,showed the mRNA transcription inhibition activity
"N#Cc1cnc2sc(CC(F)(F)F)cc2c1N1CC2(CN(C(=O)[C@H]3N[C@@H]4CC[C@H]3C4)C2)C1 [Example 21, 4-{6-[(1R,3S,4S)-2-azabicyclo[2.2.1]heptane-3-carbonyl]-2,6-diazaspiro[3.3]heptan-2-yl}-2-(2,2,2-trifluoroethyl)thieno[2,3-b]pyridine-5-carbonitrile]",8.4,270,240,40.9,52.1,potent,good,potent,showed the mRNA transcription inhibition activity
"N#Cc1cnc2sc(CC(F)(F)F)cc2c1N1CC2(CN(C(=O)[C@H]3N[C@H]4CC[C@@H]3C(=O)C4)C2)C1 [Example 25, 4-{6-[(1S,3S,4S)-5-oxo-2-azabicyclo[2.2.2]octane-3-carbonyl]-2,6-diazaspiro[3.3]heptan-2-yl}-2-(2,2,2-trifluoroethyl)thieno[2,3-b]pyridine-5-carbonitrile]",90.2,690,2200,,,,,,
"O=C([C@H]1NC2CCC1CC2)N1CC2(C1)CN(c1c(C(F)F)cnc3sc(CC(F)(F)F)cc13)C2 [Example 26, [(3S)-2-azabicyclo[2.2.2]octan-3-yl]{6-[5-(difluoromethyl)-2-(2,2,2-trifluoroethyl)thieno[2,3-b]pyridin-4-yl]-2,6-diazaspiro[3.3]heptan-2-yl}methanone]",44.7,290,680,41.4,57.6,potent,good,,showed the mRNA transcription inhibition activity
"O=C([C@H]1N[C@@H]2CC[C@H]1C2)N1CC2(C1)CN(c1c(C(F)F)cnc3sc(CC(F)(F)F)cc13)C2 [Example 27, [(1R,3S,4S)-2-azabicyclo[2.2.1]heptan-3-yl]{6-[5-(difluoromethyl)-2-(2,2,2-trifluoroethyl)thieno[2,3-b]pyridin-4-yl]-2,6-diazaspiro[3.3]heptan-2-yl}methanone]",26,560,940,48.9,53.5,potent,good,,showed the mRNA transcription inhibition activity
